Reference: patent US6399325B1, “DNA encoding a galanin receptor” (priority 1994, dated 2002)

Tested on: mock transformed CHO cells
Experiment: cAMP assay in mock transformed CHO cells
Format: cell-based
Details: CHO transformants with the plasmid vector without cDNA insert; forskolin 10 μM, porcine galanin 0.1 μM; 37° C. for 30 min
Method: (§1) CHO-MGR20 or mock transformed CHO cells were incubated with forskolin (10 μM) and porcine galanin (0.1 μM) at 37° C. for 30 min. The reaction was terminated by extracting the cells with ice-cold ethanol. The amounts of intracellular cAMP were quantitated by EIA. Values indicated are mean±S.E.M. in triplicate assays.
The CHO cells were seeded at 2.0×10^5 cells/well in 24-well tissue culture plates and cultured for two days. The cells were washed two times with HBSS containing 0.1% BSA and 1 mM IBMX, and then the same buffer with experimental agents were added to the wells. After incubation at 37° C. for 30 min, the media were discarded and intracellular cAMP was extracted with ice-cold ethanol. The aliquots of extracts were evaporated and the amounts of cAMP were quantitated by a cAMP EIA system (Amersham) as described by the manufacturer.
as §1, with “Galanin receptor-mediated inhibition of forskolin-stimulated cAMP production was observed. CHO-MGR20” for “CHO-MGR20”

## Porcine Galanin
  forskolin-stimulated cAMP accumulation: not inhibited
